The target in data set [1] is T1, ABCG2 (Homo sapiens, UniProt Q9UNQ0).
T1 sequence (Q9UNQ0 1-655): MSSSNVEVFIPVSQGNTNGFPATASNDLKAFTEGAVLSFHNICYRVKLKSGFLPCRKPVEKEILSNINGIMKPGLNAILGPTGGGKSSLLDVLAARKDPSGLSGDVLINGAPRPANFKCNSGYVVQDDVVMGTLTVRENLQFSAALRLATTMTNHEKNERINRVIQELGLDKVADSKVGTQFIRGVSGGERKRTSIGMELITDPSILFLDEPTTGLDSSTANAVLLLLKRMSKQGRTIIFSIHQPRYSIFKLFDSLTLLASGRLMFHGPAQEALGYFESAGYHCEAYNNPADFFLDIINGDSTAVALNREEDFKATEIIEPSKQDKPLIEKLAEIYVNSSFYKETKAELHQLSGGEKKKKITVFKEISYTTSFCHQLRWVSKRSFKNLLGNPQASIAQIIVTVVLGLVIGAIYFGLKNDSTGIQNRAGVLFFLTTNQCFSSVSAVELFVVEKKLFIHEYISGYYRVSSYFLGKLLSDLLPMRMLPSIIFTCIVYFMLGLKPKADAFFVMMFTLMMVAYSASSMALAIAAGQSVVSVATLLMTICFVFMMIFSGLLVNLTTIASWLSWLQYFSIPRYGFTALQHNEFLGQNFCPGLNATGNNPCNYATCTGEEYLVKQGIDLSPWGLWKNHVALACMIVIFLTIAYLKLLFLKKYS
Nature of the data set: radiolabelled drug efflux in ABCG2-overexpressing versus parental cells. In kind it is cell-based. Also on record: wild-type ABCG2 (R482) in HEK293 cells; NCI-H460/MX20 cells.

In data set [2] the target is T1, ABCG2. Nature of the data set: vanadate-sensitive ATPase assay in ABCG2 membrane vesicles; supported by [3H]-mitoxantrone accumulation and efflux in cells. In kind it is biochemical. Also on record: membrane vesicles prepared from ABCG2 expressing High-five insect cells.

As for `O=C1c2c(O)ccc(O)c2C(=O)c2c(NCCNCCO)ccc(NCCNCCO)c21` [mitoxantrone], the “radiolabelled drug efflux in ABCG2-overexpressing versus parental cells” value at ABCG2 [1] is on record as “ABCG2-overexpressing cell lines showed a significantly higher efflux activity compared to parental cell lines”. With `Cc1c(NC(=O)OC[C@@H]2COCCN2)cn2ncnc(Nc3ccc4c(cnn4Cc4cccc(F)c4)c3)c12` [BMS-599626, [4-[[1-(3-fluorophenyl)methyl]-1H-indazol5-ylamino]-5-methylpyrrolo [2,1-f][1,2,4]triazin6-yl]carbamic acid, (3S)-3-morpholinylmethyl ester], the “vanadate-sensitive ATPase assay in ABCG2 membrane vesicles; supported by [3H]-mi” value at ABCG2 [2] is 7.6 fold inhibition of ATPase activity at 3 µM.

(Values after PMC7565406, “BMS-599626, a Highly Selective Pan-HER Kinase Inhibitor, Antagonizes ABCG2-Mediated Drug Resistance” (Cancers, 2020).)
